Experiments:
[1] = tested on: HeLa cells; assay: Cytotoxicity (MTS) against HeLa cells; type: cell-based; conditions: for IC50: Homo sapiens, HeLa, concentration range 100–20,000 nM, read-out: IC50 of inhibition activity against Hela cells
Experimental: RPMI-1640 medium was used to culture cervical adenocarcinoma (HeLa) cancer cells, supplemented with 10% fetal bovine serum, 1% penicillin/streptomycin, and 1% L-glutamine. The HeLa cells were grown in a humidified environment at 37 °C with a 5% CO2 atmosphere. A 96-well plate was employed for seeding the cells at a density of 2.6 × 10^4 cells per well. Following a 24-h incubation, the cells were treated with various concentrations of the tested (AO) fractions. Cell viability was assessed using the Cell Titer 96® Aqueous One Solution Cell Proliferation (MTS) assay, following the manufacturer’s instructions (Promega Corporation, Wisconsin, WI, USA). Briefly, at the end of the treatment, 20 µL of MTS solution was added to each well containing 100 µL of media, and the cells were incubated at 37 °C for 2 h. The absorbance was measured using a UV-visible spectrophotometer at a wavelength of 490 nm.

[2] = target: T1, COX-2 (Homo sapiens, UniProt P35354); assay: COX (human) Inhibitor Screening Assay, COX-2; type: biochemical; conditions: for COX-2 Selectivity: ratio of COX-1 and COX-2 IC50
T1 construct: purchased Cayman Chemicals 701230
T1 sequence (P35354 18-604): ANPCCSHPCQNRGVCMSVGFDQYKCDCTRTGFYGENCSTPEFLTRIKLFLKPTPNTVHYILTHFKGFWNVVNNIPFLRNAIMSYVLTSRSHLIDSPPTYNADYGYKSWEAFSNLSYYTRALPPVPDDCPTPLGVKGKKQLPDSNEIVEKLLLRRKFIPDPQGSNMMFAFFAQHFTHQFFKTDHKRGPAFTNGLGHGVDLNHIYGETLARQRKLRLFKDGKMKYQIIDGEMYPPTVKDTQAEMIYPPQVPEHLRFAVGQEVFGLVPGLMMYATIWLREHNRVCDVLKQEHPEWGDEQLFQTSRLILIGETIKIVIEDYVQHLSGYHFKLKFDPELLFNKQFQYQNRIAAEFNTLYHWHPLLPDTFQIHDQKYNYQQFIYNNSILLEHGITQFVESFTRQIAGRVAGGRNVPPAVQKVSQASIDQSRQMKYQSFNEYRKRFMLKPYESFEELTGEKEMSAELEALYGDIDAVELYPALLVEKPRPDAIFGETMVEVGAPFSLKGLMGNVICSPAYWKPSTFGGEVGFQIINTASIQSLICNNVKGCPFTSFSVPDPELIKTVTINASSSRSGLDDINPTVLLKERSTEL
Experimental: Our synthesized compounds’ COX-1 and COX-2 inhibitory activities were evaluated using the COX (human) Inhibitor Screening Assay Kit supplied by Cayman Chemicals (catalog no. 701230, Ann Arbor, MI, USA). The preparation of reagents and testing procedures were conducted according to the manufacturer’s recommendations. Two concentrations of the inhibitors (10 µM and 50 µM) were dissolved in a minimal amount of dimethyl sulfoxide (DMSO) and incubated with a mixture of COX-1 or COX-2 enzyme and heme in a diluted reaction buffer for 10 min at 37 °C. The reaction was initiated by adding 10 µL of arachidonic acid, followed by a two-minute incubation at 37 °C. The reaction was halted by adding 30 µL of stannous chloride solution to each reaction tube and incubating for 5 min at room temperature. The resulting PGF2α, produced by the COX reactions, was quantified using an enzyme-linked immunosorbent assay (ELISA). The 96-well plate was covered with plastic film and incubated for 18 h at room temperature on an orbital shaker. After incubation, the plate was rinsed five times with a wash buffer. Then, Ellman’s reagent (200 µL) was added, and the plate was incubated for approximately 60–90 min at room temperature until the absorbance of the blank well was in the range of 0.3–0.8 at 405 nm. The plate was read using a Unilab Microplate Reader 6000. The inhibitory percentage was calculated for each concentration tested against the control. The IC50 values were derived from the concentration-inhibition response curve, and the selectivity index (SI) was calculated by dividing the IC50 for COX-2 by the IC50 for COX-1 [52].

[3] = DPPH antioxidant activity assay
Experimental: To evaluate four synthesized compounds and Trolox (as a positive control), a 1 mg/mL concentration in methanol was first made from phenyl alcohol. The prepared solution was produced in concentrations of 1, 2, 3, 5, 7, 10, 20, 30, 50, and 80 µg/mL. The DPPH reagent was then diluted in 0.002% w/v methanol and combined in a […] ratio with the previously produced working concentrations. A blank solution of 100% methanol was used. All solutions were incubated at room temperature for 30 min in a dark environment. Their absorbance values were then determined using a UV-visible spectrophotometer set at a wavelength of 517 nm. The antioxidant capacity of each chemical compound fraction and Trolox were calculated using the following formula:% inhibition = ((Abs blank − Abs Sample)/Abs Blank) × 100 where:
Abs blank: Absorbance value of the control reaction containing all reagents except the synthesized compound.
Abs sample: The absorbance value of the synthesized compound [48].

Molecule | % toxicity against HeLa cells ([1]; 200 nM) | IC50 [1] | IC50 [2] | COX-2 Selectivity [2] | % inhibition of DPPH radical (radical scavenging) ([3]; 1 µg/mL) | % inhibition of DPPH radical (radical scavenging) ([3]; 2 µg/mL) | % inhibition of DPPH radical (radical scavenging) ([3]; 3 µg/mL) | % inhibition of DPPH radical (radical scavenging) ([3]; 5 µg/mL) | % inhibition of DPPH radical (radical scavenging) ([3]; 7 µg/mL) | % inhibition of DPPH radical (radical scavenging) ([3]; 10 µg/mL) | % inhibition of DPPH radical (radical scavenging) ([3]; 20 µg/mL) | % inhibition of DPPH radical (radical scavenging) ([3]; 30 µg/mL) | % inhibition of DPPH radical (radical scavenging) ([3]; 50 µg/mL) | % inhibition of DPPH radical (radical scavenging) ([3]; 80 µg/mL)
OC1(c2ccccc2)c2ccccc2Sc2ccc(C(F)(F)F)cc21 (stereo not drawn) [Compound 1, 9-phenyl-2-(trifluoromethyl)-9H-thioxanthen-9-ol] | 93.18% | 0.0878 µM | 0.0271 ± 0.0006 µM | 1.5 | 7.1 ± 1.2% | 7.6 ± 2.3% | 8.2 ± 1.5% | 8.6 ± 3.1% | 8.9 ± 2.3% | 9.3 ± 1.6% | 9.9 ± 2.5% | 12.6 ± 3.2% | 12.9 ± 2.6% | 16.3 ± 4.3%
OC1(Cc2ccccc2)c2ccccc2Sc2ccc(C(F)(F)F)cc21 (stereo not drawn) [Compound 2, 9-benzyl-2-(trifluoromethyl)-9H-thioxanthen-9-ol] |  | 0.169 µM | 0.0741 ± 0.00048 µM | 0.2 | 36.3 ± 2.4% | 37.3 ± 3.9% | 39.3 ± 4.2% | 39.5 ± 3.4% | 39.7 ± 3.6% | 40.1 ± 4.9% | 40.7 ± 2.5% | 40.7 ± 3.8% | 41.6 ± 5.1% | 42.2 ± 3.9%
S-(9-benzyl-2-(trifluoromethyl)-9H-thioxanthen-9-yl)-L-cysteine [Compound 3] |  |  | 0.0259 ± 0.00045 µM | 1.3 | 31.3 ± 2.3% | 36.4 ± 3.5% | 39.9 ± 3.6% | 39.9 ± 4.1% | 40.1 ± 3.8% | 40.2 ± 5.1% | 40.4 ± 5.2% | 41.9 ± 4.9% | 42.9 ± 3.2% | 46.6 ± 2.4%

— publication PMC12030165, “Bioactivity of Synthesized Trifluoromethyl Thioxanthone Analogues” (Pharmaceuticals, 2025)
